The molecules below were run against T1, human ENPP1 enzymatic domain (Homo sapiens, UniProt P22413) (assay: ENPP1 Enzymatic Inhibition Assay (2′3′-cGAMP substrate, AMP-Glo luminescence)). Details: 1 nM ENPP1, 20 uM 2′3′-cGAMP, 30 minutes at 37° C.
T1 construct: recombinant protein containing the human ENPP1 enzymatic domain; purchased Viva Biotech
T1 sequence (P22413 191-591 limits assumed): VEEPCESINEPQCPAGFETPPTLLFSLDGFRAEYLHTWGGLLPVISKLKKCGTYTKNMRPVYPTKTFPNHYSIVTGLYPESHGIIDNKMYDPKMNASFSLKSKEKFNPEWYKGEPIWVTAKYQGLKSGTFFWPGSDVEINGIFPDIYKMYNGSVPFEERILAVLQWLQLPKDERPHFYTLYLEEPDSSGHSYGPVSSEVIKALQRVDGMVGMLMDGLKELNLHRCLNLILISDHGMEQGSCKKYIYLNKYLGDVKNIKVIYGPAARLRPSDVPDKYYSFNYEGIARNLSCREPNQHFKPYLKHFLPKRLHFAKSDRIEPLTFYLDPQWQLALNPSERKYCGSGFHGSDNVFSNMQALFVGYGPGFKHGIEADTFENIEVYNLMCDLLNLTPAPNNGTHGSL
Assay type: biochemical
Procedure: The inhibition of ENPP1's phosphodiesterase activity were tested in a purified enzymatic assay using 2′3′-cyclic GAMP as a substrate which allowed for the release of cleaved AMP to be monitored using a luminescent assay.
Putative inhibitors were diluted in assay buffer (50 mM Tris pH 8.0, 250 mM NaCl, 0.5 mM CaCl2), 1 uM ZnCl2, 1% DMSO) and pre-incubated for 15 minutes at 37° C. with recombinant protein containing the human ENPP1 enzymatic domain (Viva Biotech). The enzymatic reaction was initiated upon addition of the 2′3′-cGAMP substrate. The final reaction concentrations were 1 nM ENPP1 and 20 uM 2′3′-cGAMP substrate in a 25 uL volume. Inhibitor concentrations ranged from 10 uM to 0.056 nM. The reaction was incubated for 30 minutes at 37° C.
After reacting for 30 minutes, the amount of AMP generated from the cleavage of 2′3′-cGAMP was determined using the Promega AMP-Glo method according to the manufacturer's protocol. First, AMP-Glo reagent 1 was added and incubated with the reaction mix for 1 hour at room temperature. Second, AMP Detection solution was added and the mixture was incubated for an additional hour. The luminescence of the mixture was read on a Perkin Elmer Ensight plate reader.
The maximum and minimum levels of ENPP1 activity were established using no inhibitor and no enzyme controls, respectively. The activity observed using ENPP1 inhibitors was quantified as the percent of activity relative to these controls. IC50 values were calculated using CDD Vault by fitting a sigmoidal variable slope nonlinear regression model to the data.

Row | IC50 | Compound
1 | < 10 nM | COc1ccc2c(Nc3ccc([S@](=N)(=O)N[C@@H](C)CO)cc3)ccnc2c1 [Compound 39, (R)-N-((S)-1-hydroxypropan-2-yl)-4-((7-methoxyquinolin-4-yl)amino)benzenesulfonimidamide]
2 | 10 to 100 nM | COc1ccc2c(Nc3ccc([S@@](=N)(=O)N[C@@H](C)CO)cc3)ccnc2c1 [Compound 40, (S)-N-((S)-1-hydroxypropan-2-yl)-4-((7-methoxyquinolin-4-yl)amino)benzenesulfonimidamide]
3 | 10 to 100 nM | COc1ccc2c(Nc3ccc([S@](=N)(=O)N[C@@H](C)c4ccnn4C)cc3)ccnc2c1 [Compound 41, (R)-4-((7-methoxyquinolin-4-yl)amino)-N-((S)-1-(1-methyl-1H-pyrazol-5-yl)ethyl)benzenesulfonimidamide]
4 | < 10 nM | COc1ccc2c(Nc3ccc([S@@](=N)(=O)N[C@@H](C)c4ccnn4C)cc3)ccnc2c1 [Compound 42, (S)-4-((7-methoxyquinolin-4-yl)amino)-N-((S)-1-(1-methyl-1 H-pyrazol-5-yl)ethyl)benzenesulfonimidamide]
5 | < 10 nM | COc1ccc2c(Oc3ccc([S@](=N)(=O)NC[C@H](O)C(C)(C)C)cc3)ccnc2c1 [Compound 43, (R)-N-((R)-2-hydroxy-3,3-dimethylbutyl)-4-((7-methoxyquinolin-4-yl)oxy)benzenesulfonimidamide]
6 | 10 to 100 nM | COc1ccc2c(Oc3ccc([S@@](=N)(=O)NC[C@H](O)C(C)(C)C)cc3)ccnc2c1 [Compound 44, (S)-N-((R)-2-hydroxy-3,3-dimethylbutyl)-4-((7-methoxyquinolin-4-yl)oxy)benzenesulfonimidamide]
7 | 10 to 100 nM | COc1ccc2c(Nc3ccc([S@](=N)(=O)NC[C@H](C)O)cc3F)ccnc2c1 [Compound 45, (R)-3-fluoro-N-((S)-2-hydroxypropyl)-4-((7-methoxyquinolin-4-yl)amino)benzenesulfonimidamide]
8 | < 10 nM | COc1ccc2c(Nc3ccc([S@@](=N)(=O)NC[C@H](C)O)cc3F)ccnc2c1 [Compound 46, (S)-3-fluoro-N-((S)-2-hydroxypropyl)-4-((7-methoxyquinolin-4-yl)amino)benzenesulfonimidamide]
9 | < 10 nM | COc1ccc2c(Nc3ccc([S@](=N)(=O)NC[C@H](C)O)c(F)c3)ccnc2c1 [Compound 47, (R)-2-fluoro-N-((S)-2-hydroxypropyl)-4-((7-methoxyquinolin-4-yl)amino)benzenesulfonimidamide]
10 | < 10 nM | COc1ccc2c(Nc3ccc([S@@](=N)(=O)NC[C@H](C)O)c(F)c3)ccnc2c1 [Compound 48, (S)-2-fluoro-N-((S)-2-hydroxypropyl)-4-((7-methoxyquinolin-4-yl)amino)benzenesulfonimidamide]
11 | < 10 nM | COc1ccc2c(Nc3ccc([S@](=N)(=O)NCCCn4cnnc4)cc3)ccnc2c1 [Compound 49, (R)-N-(3-(4H-1,2,4-triazol-4-yl)propyl)-4-((7-methoxyquinolin-4-yl)amino)benzenesulfonimidamide]
12 | < 10 nM | COc1ccc2c(Nc3ccc([S@@](=N)(=O)NCCCn4cnnc4)cc3)ccnc2c1 [Compound 50, (S)-N-(3-(4H-1,2,4-triazol-4-yl)propyl)-4-((7-methoxyquinolin-4-yl)amino)benzenesulfonimidamide]
13 | 10 to 100 nM | COc1cc2nccc(Nc3ccc([S@](=N)(=O)NC[C@@H](C)O)cc3)c2cc1OC [Compound 51, (R)-4-((6,7-dimethoxyquinolin-4-yl)amino)-N-((R)-2-hydroxypropyl)benzenesulfonimidamide]
14 | < 10 nM | COc1cc2nccc(Nc3ccc([S@@](=N)(=O)NC[C@@H](C)O)cc3)c2cc1OC [Compound 52, (S)-4-((6,7-dimethoxyquinolin-4-yl)amino)-N-((R)-2-hydroxypropyl)benzenesulfonimidamide]
15 | < 10 nM | COc1ccc2c(Nc3ccc([S@](=N)(=O)NCCO)cc3)ccnc2c1 [Compound 53, (R)-N-(2-hydroxyethyl)-4-((7-methoxyquinolin-4-yl)amino)benzenesulfonimidamide]
16 | < 10 nM | COc1ccc2c(Nc3ccc([S@@](=N)(=O)NCCO)cc3)ccnc2c1 [Compound 54, (S)-N-(2-hydroxyethyl)-4-((7-methoxyquinolin-4-yl)amino)benzenesulfonimidamide]
17 | < 10 nM | COc1ccc2c(Nc3ccc([S@](=N)(=O)NC[C@@H](C)O)cc3)ccnc2c1 [Compound 55, (R)-N-((R)-2-hydroxypropyl)-4-((7-methoxyquinolin-4-yl)amino)benzenesulfonimidamide]
18 | > 100 nM | COc1cccc2c(Nc3ccc([S@](=N)(=O)NCCO)cc3)ccnc12 [Compound 57, (R)-N-(2-hydroxyethyl)-4-((8-methoxyquinolin-4-yl)amino)benzenesulfonimidamide]
19 | < 10 nM | COc1cccc2c(Nc3ccc([S@@](=N)(=O)NCCO)cc3)ccnc12 [Compound 58, (S)-N-(2-hydroxyethyl)-4-((8-methoxyquinolin-4-yl)amino)benzenesulfonimidamide]
20 | < 10 nM | COc1ccc2c(Nc3ccc([S@](=N)(=O)NC[C@H](O)C(C)(C)C)cc3)ccnc2c1 [Compound 59, (R)-N-((R)-2-hydroxy-3,3-dimethylbutyl)-4-((7-methoxyquinolin-4-yl)amino)benzenesulfonimidamide]
21 | < 10 nM | COc1ccc2c(Nc3ccc([S@@](=N)(=O)NC[C@H](O)C(C)(C)C)cc3)ccnc2c1 [Compound 60, (S)-N-((R)-2-hydroxy-3,3-dimethylbutyl)-4-((7-methoxyquinolin-4-yl)amino)benzenesulfonimidamide]
22 | > 100 nM | COc1cccc2c(Nc3ccc([S@](=N)(=O)NC[C@@H](C)O)cc3)ncnc12 [Compound 61, (R)-N-((R)-2-hydroxypropyl)-4-((8-methoxyquinazolin-4-yl)amino)benzenesulfonimidamide]
23 | 10 to 100 nM | COc1cccc2c(Nc3ccc([S@@](=N)(=O)NC[C@@H](C)O)cc3)ncnc12 [Compound 62, (S)-N-((R)-2-hydroxypropyl)-4-((8-methoxyquinazolin-4-yl)amino)benzenesulfonimidamide]
24 | 10 to 100 nM | COc1ccc2c(Nc3ccc([S@](=N)(=O)NC[C@@H](C)O)cc3)ncnc2c1 [Compound 63, (R)-N-((R)-2-hydroxypropyl)-4-((7-methoxyquinazolin-4-yl)amino)benzenesulfonimidamide]
25 | < 10 nM | COc1ccc2c(Nc3ccc([S@@](=N)(=O)NC[C@@H](C)O)cc3)ncnc2c1 [Compound 64, (S)-N-((R)-2-hydroxypropyl)-4-((7-methoxyquinazolin-4-yl)amino)benzenesulfonimidamide]
26 | < 10 nM | COc1cc2nccc(Nc3ccc([S@@](=N)(=O)NC4CC4)cc3)c2cc1F [Compound 67, (S)-N-cyclopropyl-4-((6-fluoro-7-methoxyquinolin-4-yl)amino)benzenesulfonimidamide]
27 | < 10 nM | COc1cc2nccc(Nc3ccc([S@@](=N)(=O)NC[C@@H](C)O)cc3)c2cc1F [Compound 68, (S)-4-((6-fluoro-7-methoxyquinolin-4-yl)amino)-N-((R)-2-hydroxypropyl)benzenesulfonimidamide]
28 | < 10 nM | COc1ccc2c(Nc3ccc([S@@](=N)(=O)NC[C@@H](C)OC(C)=O)cc3)ccnc2c1 [Compound 69, (R)-1-(((S)-4-((7-methoxyquinolin-4-yl)amino)phenyl)sulfonoamidimidamido)propan-2-yl acetate]

— patent publication US20240382474A1, “ENPP1 MODULATORS AND USES THEREOF” (Vir Biotechnology, Inc., priority 2021, published 2024)
